One compound from paper PMC4413647, “Simultaneous targeting of androgen receptor (AR) and MAPK-interacting kinases (MNKs) by novel retinamides inhibits growth of human prostate cancer cell lines” (Oncotarget, 2014) can be followed below.

Structures are written as SMILES.

Type in all cases: cell-based, human
The test system of assay [1] is LNCaP cells. The experiment in a line: MTT cell viability of LNCaP cells with AR/MNK1 siRNA and VNLG-152. Conditions: untransfected cells, 5 μM, 72 h. From the text:
To confirm whether the observed anti-cancer effects of VNLG-152 on PCa cells was primarily due to its inhibitory effects on AR and MNK, we investigated the impact of AR and/or MNK siRNA on the survival of LNCaP cells by MTT assay. […] Co-transfection of LNCaP cells with both AR and MNK1 siRNA (compare lanes 1 and 4) further augmented loss of viability in LNCaP cells.
Figure 6 Effect of siAR, siMNK1 on LNCaP cell viability, and VNLG-152 on key and downstream proteins in LNCaP cells (A) Western blot analysis of the expression of fAR, MNK1 and peIF4E in LNCaP cells transfected with 100 nM of siAR, siMNK1 and combinations for 18 h. (B) Effect of VNLG-152 (5 μmol) on cell proliferation in LNCaP cells transfected with siAR, siMNK1 and combinations as determined by MTT assay. The results represent the mean ± SEM of three independent experiments and are represented as a bar graph after normalizing to control cells. *, P< 0.05; ♣, P<0.01 compared with vehicle treated control. (C) Dose-dependent effect of VNLG-152 on the expression of AR, MNKs, peIF4E and downstream target proteins. Total cell lysate from LNCaP cells treated with VNLG-152 (0 - 20 μmol/L) for 24 h were separated by SDS-PAGE and probed with corresponding antibodies. Vehicle treated cells were included as control and all blots were reprobed for β-actin to ensure equal protein loading. […]

Assay [2] deals with Bax, cleaved PARP-1. As to the kind of experiment: Western blot of Bax and cleaved PARP-1 in PCa cells. Particulars: 20 μM, 24 h, among the lead NRs. Here is the method: Figure 4 Effect of NRs on cell cycle and apoptosis (A) LNCaP cells treated with 5 μM of NRs and other compounds for 24 h were stained with PI and analysed with a FACS calibur flow cytometer. (B) Total cell lysates from PCa cells treated with 20 μM of NRs were separated by SDS-PAGE and probed with cyclin D1 and B antibodies. […] (C) LNCaP cells were treated with indicated compounds (5 μmol/L) for 24 h and apoptosis induction was examined by oligonucleosomal fragmentation. Data are shown relative to vehicle treated control and the bars are means of three replicate determinations plus standard deviations. *, P< 0.01; ♣, P<0.05 compared with vehicle treated control. (D) PCa cells as indicated were seeded in 24 well plate, and treated with 5 μmol/L of NRs the subsequent day. After 24 h the plates were analyzed for apoptotic and viable cells using acridine orange/ethidium bromide staining. (E) Western blot analysis of apoptosis associated Bax and cPARP in PCa cells treated with NRs (20 μmol/L) for 24 h. (F) Apoptosis induction in LNCaP cells treated with 5 μmol/L of VNLG-147 and -152 in the presence or absence of ZVAD (5 μmol/L) was assessed by oligonucleosomal fragmentation after 24 h incubation. *, P< 0.05 compared with vehicle treated control. […]

Assay [3] relates to PC-3 cells. The experiment in a line: Wound healing migration assay. Particulars: 5 μM, 24 h. Here is the method: Figure 5 Anti-migratory and anti-invasive potential of NRs (A) Effect of NRs treatment (5 μmol/L) on PC-3 cell migration was assessed by wound healing assay after 24 h of wound formation. Representative photomicrographs of initial and final wounds are shown at 100x magnification. (B) Effect of NRs on PC-3 cell invasion was evaluated by transwell migration assay. PC-3 cells were seeded on matrigel coated boyden chamber and treated with NRs (5 μmol/L, 24 h). Photographs represent the extent of cell invasion in each of the treated cells. (C) Western blot analysis of the effect of NRs on the expression of cadherins in PC-3 cells. Cells were treated with indicated compound 20 μmol/L for 24 h. […] For wound healing assay highly metastatic PC-3 cells were plated in a 24 well plate at a seeding density of 5 × 10^5 cells/ well and allowed to form a confluent monolayer for 24 h. Cells were made dormant by pretreating with 0.5 μmol/L mitomycin C for 2 h to ensure that wounds are filled due to cell migration and not by cell proliferation. Subsequently, the monolayer was scratched with a pipette tip, washed with media to remove floating cells, and photographed (time 0 h). Cells were then treated with indicated compounds (5 μM) and the experiment was terminated as soon as wound was completely filled in vehicle treated controls. Cells were then photographed again using Nikon TE2000 microscope at three randomly selected sites per well [43].

For the compound `CC1=C(/C=C/C(C)=C/C=C/C(C)=C/C(=O)Nc2ccc(F)cc2)C(C)(C)CCC1n1ccnc1` (racemic) [VNLG-152], the LNCaP cell viability result in assay [1] is “robust reduction”. For the same compound, in assay [2], the “efficacy in inducing PARP cleavage and/or increasing Bax expression” value is “greater efficacies”. Besides, the “PC-3 cell migration to the denuded zone” value in assay [3] was “potentially suppressed”.
